From patent publication US8231858B2, “Diagnostic imaging agents with MMP inhibitory activity” (GE Healthcare Limited, priority 2003, dated 2012) come the findings set out here.

One series deals with MMP-9 (Homo sapiens, UniProt P14780). Briefly: Assay for MMP-9 inhibitory activity (fluorogenic substrate). The format is biochemical. The settings on record: MMP-9 2 nM, preincubation 37° C. for 30 min, pH 7.5. The procedure:
(§1) The synthetic broad-spectrum fluorogenic substrate (7-methoxycoumarin-4-yl) acetyl pro-Leu-Gly-Leu-(3-(2,4-dinitrophenyl)-L-2,3-diamino-propionyl)-Ala-Arg-NH2 (R & D Systems) was used to assay MMP-2 and MMP-9 activity as described previously [Huang et al J. Biol. Chem. 272 22086-22091 (1997)]. […] An aliquot (10 μl) of substrate (5 μM) was then added to […] of preincubated MMP/compound mixture, and activity was determined at 37° C. by following product release with time. The fluorescence changes were monitored using a Fusion Universal Microplate Analyzer (Packard Bioscience) with excitation and emission wavelengths set to 330 and 390 nm, respectively for MMP-2 and MMP-9. Inhibited rates were measured from the initial 10 min of the reaction profile where product release was linear with time. Nonlinear regression analysis was performed using the XMGRACE 5.18 software under linux.

A further series concerns the target T1, MMP-2 (Homo sapiens, UniProt P08253).
T1 sequence (P08253 110-660): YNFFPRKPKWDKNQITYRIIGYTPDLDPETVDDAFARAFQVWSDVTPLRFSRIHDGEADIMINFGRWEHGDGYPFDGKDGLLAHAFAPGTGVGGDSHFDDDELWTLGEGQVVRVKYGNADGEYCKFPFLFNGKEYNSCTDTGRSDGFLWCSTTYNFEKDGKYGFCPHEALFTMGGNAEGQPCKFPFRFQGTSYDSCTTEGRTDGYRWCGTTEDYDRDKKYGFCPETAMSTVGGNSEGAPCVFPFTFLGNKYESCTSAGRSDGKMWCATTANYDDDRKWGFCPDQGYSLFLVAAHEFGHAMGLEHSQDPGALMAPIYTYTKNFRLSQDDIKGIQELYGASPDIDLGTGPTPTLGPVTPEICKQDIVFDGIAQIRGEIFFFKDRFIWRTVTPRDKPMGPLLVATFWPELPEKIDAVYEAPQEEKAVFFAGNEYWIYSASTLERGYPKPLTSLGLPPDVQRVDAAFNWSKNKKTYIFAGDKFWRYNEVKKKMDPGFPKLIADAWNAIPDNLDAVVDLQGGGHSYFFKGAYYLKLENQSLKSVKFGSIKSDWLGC
Briefly: Assay for MMP-2 inhibitory activity (fluorogenic substrate). The format is biochemical. The settings on record: MMP-2 1 nM, preincubation 37° C. for 30 min, pH 7.5. The procedure: as §1

Chain of MMP-9 (P14780 94-707, species assumed): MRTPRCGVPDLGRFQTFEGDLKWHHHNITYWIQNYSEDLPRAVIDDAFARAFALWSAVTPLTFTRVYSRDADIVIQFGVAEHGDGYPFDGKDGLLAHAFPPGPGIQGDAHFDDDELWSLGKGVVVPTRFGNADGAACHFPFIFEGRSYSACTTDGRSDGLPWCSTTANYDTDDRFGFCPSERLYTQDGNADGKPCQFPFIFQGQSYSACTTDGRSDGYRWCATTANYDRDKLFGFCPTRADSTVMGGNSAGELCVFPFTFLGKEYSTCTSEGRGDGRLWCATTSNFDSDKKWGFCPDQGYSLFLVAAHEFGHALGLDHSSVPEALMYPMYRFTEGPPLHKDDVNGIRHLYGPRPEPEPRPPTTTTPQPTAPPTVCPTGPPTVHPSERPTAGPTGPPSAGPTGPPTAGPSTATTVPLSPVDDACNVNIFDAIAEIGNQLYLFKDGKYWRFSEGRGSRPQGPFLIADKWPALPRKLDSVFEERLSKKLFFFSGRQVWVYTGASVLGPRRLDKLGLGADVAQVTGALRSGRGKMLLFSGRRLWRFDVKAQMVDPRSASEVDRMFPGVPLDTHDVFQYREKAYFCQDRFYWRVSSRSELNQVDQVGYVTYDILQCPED

By melting point is commonly meant the temperature, or range, at which the solid turns liquid. By IC50 is commonly meant the midpoint of a concentration-inhibition curve. Read a high IC50 as a need for much substance. In turn, `CC(C)[C@H](C(=O)NO)N(Cc1cccnc1)S(=O)(=O)c1ccc(O)c(I)c1` [Compound 8] showed a melting point of 201 to 203 °C. In addition, inhibition on MMP-9 was half-maximal at 153 nM (IC50). Further, the concentration for half-maximal inhibition (IC50) at MMP-2 stood at 320 nM.

The compound `CC(C)C(C(=O)NO)N(Cc1cccnc1)S(=O)(=O)c1ccc(I)cc1` (centres unmarked) [Compound 9] returned a melting point of 169 °C. On MMP-9, this compound had an IC50 of 4.6 nM. For the same compound, at MMP-2, half-maximal inhibition (IC50) required 2.5 nM.

Take `CC(C)[C@H](C(=O)NO)N(Cc1cccnc1)S(=O)(=O)c1ccc(O)cc1` [Compound 13]: the IC50 against MMP-9 turned out to be 257 nM; against MMP-2, 57.5 nM.

In the case of `CC(C)[C@H](C(=O)NO)N(Cc1cccnc1)S(=O)(=O)c1ccc(Br)cc1` [Compound 14], the melting point lay in the range of 169 to 170 °C. Further, inhibition against MMP-9 was half-maximal at 76 nM (IC50). This compound yielded an IC50 against MMP-2 of 16.2 nM.
